From patent US20240132431A1, “METHOD FOR ALKYLATING ACIDIC FUNCTIONAL GROUP” (Chugai Seiyaku Kabushiki Kaisha, priority 2021, published 2024) come the findings set out here.

This test deals with T1, Bcl-2 protein (Recombinant Human Bcl-2 Protein) (Homo sapiens, UniProt P10415).
T1 construct: purchased Novus NBP2-34889
In words: Binding evaluation of mixture library compounds to Bcl-2 using AS-MS (affinity selection mass spectrometry). The following applies: for ASMS ratio (%) n = 1 / ASMS ratio (%) n = 2: ASMS Ratio(%)=(A−C)/B×100; for ASMS ratio (%) n = 1: replicate n = 1; for ASMS ratio (%) n = 2: replicate n = 2. Summed up:
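Bcl-2 binding is scored from LC/MS signal retained with protein through gel-filtration spin columns, normalised to unfiltered and protein-free controls. Incubation: 20 μM protein, […] per compound, 1 h, 23° C.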

The mark [1] stands for this setting: AS-MS, mixture of 1200 compounds, Bcl-2.
Where [2] appears, read: AS-MS on the mixture of 1200 library compounds.

T1 sequence (P10415 whole entry): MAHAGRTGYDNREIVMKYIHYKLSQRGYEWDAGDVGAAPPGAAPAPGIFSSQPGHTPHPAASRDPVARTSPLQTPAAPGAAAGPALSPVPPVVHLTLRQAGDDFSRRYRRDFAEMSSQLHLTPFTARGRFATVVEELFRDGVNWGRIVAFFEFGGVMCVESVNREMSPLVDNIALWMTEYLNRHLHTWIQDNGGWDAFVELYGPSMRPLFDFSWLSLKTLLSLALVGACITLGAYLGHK

On to `CCOc1cccc(-c2ccc(C(C)N3CCN(c4ccc(C(=O)NCC(F)(F)F)cc4)CC3)c(F)c2)c1` (stereo not drawn) [B1K099-01, 4-[4-[1-[4-(3-Ethoxyphenyl)-2-fluorophenyl]ethyl]piperazin-1-yl]-N-(2,2,2-trifluoroethyl)benzamide], for which, under setting [1], the “ASMS ratio (%) n = 1” value is listed as 0.0% and the “ASMS ratio (%) n = 2” value is 0.0%.
Consider `CCOc1cccc(C#Cc2ccccc2C(=O)N2CCN(c3ccc(C(=O)NCC(F)(F)F)nn3)CC2)c1` [B1K007-01, 6-[4-[2-[2-(3-Ethoxyphenyl)ethynyl]benzoyl]piperazin-1-yl]-N-(2,2,2-trifluoroethyl)pyridazine-3-carboxamide], for which, under setting [1], the “ASMS ratio (%) n = 1” value is 0.0% and the “ASMS ratio (%) n = 2” value was 1.3%.
Regarding `CCOc1cncc(-c2ccc(CN3CCN(c4ccc(C(=O)NS(=O)(=O)C(C)(C)C)cc4)CC3)c(CC)c2)c1` [B2L050-01], the “ASMS ratio (%)” value is, setting by setting: (n = 1) 0.0%; (n = 2) 0.0%.
In the case of “6-[4-[[4-(5-Ethoxypyridin-3-yl)-2,6-dimethoxyphenyl]methyl]piperazin-1-yl]-N-propylpyridazine-3-carboxamide [B1M023-01]”, under setting [1], the “ASMS ratio (%) n = 1” value stood at 1.4% and the “ASMS ratio (%) n = 2” value is listed as −3.0%.
For `CCOc1cncc(-c2cc(CN3CCN(c4ccc(C(=O)NS(C)(=O)=O)cc4)CC3)cc(C(F)(F)F)c2)c1` [B2I062-01, 4-[4-[[3-(5-Ethoxypyridin-3-yl)-5-(trifluoromethyl)phenyl]methyl]piperazin-1-yl]-N-methylsulfonylbenzamide], the “ASMS ratio (%)” value runs as follows: (n = 1) 0.0%; (n = 2) 0.0%.
“4-[4-[[3-(5-Ethoxypyridin-3-yl)-5-(trifluoromethyl)phenyl]methyl]piperazin-1-yl]-N-propylbenzamide [B1M028-01]”: under setting [1], the “ASMS ratio (%) n = 1” value is recorded as 0.0% and the “ASMS ratio (%) n = 2” value turned out to be 0.0%.
On to `CCOc1cncc(-c2ccc(CN3CCN(c4ccc(C(=O)NS(=O)(=O)CCC(F)(F)F)cc4)CC3)c3ccccc23)c1` [B2N066-01, 4-[4-[[4-(5-Ethoxypyridin-3-yl)naphthalen-1-yl]methyl]piperazin-1-yl]-N-(3,3,3-trifluoropropylsulfonyl)benzamide], for which the “ASMS ratio (%)” value turned out to be 0.0% (n = 1) and 0.0% (n = 2).
For `CCOc1cncc(-c2cc(C(=O)N3CCN(c4ccc(C(=O)NS(=O)(=O)CC56CC7CC(CC(C7)C5)C6)nn4)CC3)cc(C(C)(C)C)c2)c1` [B2A016-01, N-(1-Adamantylmethylsulfonyl)-6-[4-[3-tert-butyl-5-(5-ethoxypyridin-3-yl)benzoyl]piperazin-1-yl]pyridazine-3-carboxamide], under “AS-MS, mixture library, Bcl-2”, the “ASMS ratio (%) n = 1” value is listed as 0.0% and the “ASMS ratio (%) n = 2” value is given as 2.5%.
Turning to `CCOc1cncc(-c2cc(CN3CCN(c4ccc(C(=O)Nc5ccc(OC)cc5)nn4)CC3)cc(OCC)c2)c1` [B1O082-01, 6-[4-[[3-Ethoxy-5-(5-ethoxypyridin-3-yl)phenyl]methyl]piperazin-1-yl]-N-(4-methoxyphenyl)pyridazine-3-carboxamide], under setting [2], the “ASMS ratio (%) n = 1” value is 1.5% and the “ASMS ratio (%) n = 2” value was found to be 2.6%.
On to `CCOc1cncc(-c2ccc(CN3CCN(c4ccc(C(=O)NS(=O)(=O)C(C)(C)C)nn4)CC3)cc2C)c1` [B2L074-01, N-tert-Butylsulfonyl-6-[4-[[4-(5-ethoxypyridin-3-yl)-3-methylphenyl]methyl]piperazin-1-yl]pyridazine-3-carboxamide], for which the “ASMS ratio (%)” value by setting is: (n = 1) −1.0%; (n = 2) 1.4%.
Regarding `CCOc1cccc(-c2cc(C(=O)N3CCN(c4ccc(C(=O)NCC56CC7CC(CC(C7)C5)C6)nn4)CC3)cc(C(F)(F)F)c2)c1` [B1A017-01, N-(1-Adamantylmethyl)-6-[4-[3-(3-ethoxyphenyl)-5-(trifluoromethyl)benzoyl]piperazin-1-yl]pyridazine-3-carboxamide], under setting [1], the “ASMS ratio (%) n = 1” value was determined as 5.4% and the “ASMS ratio (%) n = 2” value was found to be 5.4%.
As to `CCOc1cccc(-c2cc(CN3CCN(c4ccc(C(=O)NS(C)(=O)=O)nn4)CC3)cc(OC(C)C)c2)c1` [B2I083-01, 6-[4-[[3-(3-Ethoxyphenyl)-5-propan-2-yloxyphenyl]methyl]piperazin-1-yl]-N-methylsulfonylpyridazine-3-carboxamide], the “ASMS ratio (%)” value amounted to 0.0% (n = 1) and 0.0% (n = 2).
For `CCOc1cncc(-c2ccc(CN3CCN(c4ccc(C(=O)NS(=O)(=O)CCC(F)(F)F)cc4)CC3)cc2C)c1` [B2N048-01, 4-[4-[[4-(5-Ethoxypyridin-3-yl)-3-methylphenyl]methyl]piperazin-1-yl]-N-(3,3,3-trifluoropropylsulfonyl)benzamide], the “ASMS ratio (%)” value is on record as 0.0% (n = 1) and −0.7% (n = 2).
As to `CCOc1cccc(-c2cc(C(=O)N3CCN(c4ccc(C(=O)N(CC)CC)cc4)CC3)cc(C(C)(C)C)c2)c1` [B4J037-01, 4-[4-[3-tert-Butyl-5-(3-ethoxyphenyl)benzoyl]piperazin-1-yl]-N,N-diethylbenzamide], under setting [2], the “ASMS ratio (%) n = 1” value came to 2.7% and the “ASMS ratio (%) n = 2” value was −1.5%.
Taken in the same sequence, the figures for “6-[4-[4-(5-Ethoxypyridin-3-yl)-3-fluorobenzoyl]piperazin-1-yl]-N-propylpyridazine-3-carboxamide [B1M088-01]” were 0.0% and 0.0%.
Take `CCOc1cncc(C#Cc2cncc(C(=O)N3CCN(c4ccc(C(=O)NS(C)(=O)=O)cc4)CC3)c2)c1` [B2I032-01, 4-[4-[5-[2-(5-Ethoxypyridin-3-yl)ethynyl]pyridine-3-carbonyl]piperazin-1-yl]-N-methylsulfonylbenzamide]: for the setting “AS-MS, mixture library, Bcl-2”, the “ASMS ratio (%) n = 1” value is −1.6% and the “ASMS ratio (%) n = 2” value is −1.6%.
With `CCOc1cncc(-c2csc(C(=O)N3CCN(c4ccc(C(=O)N(CC)CC)cc4)CC3)c2)c1` [B4J024-01, 4-[4-[4-(5-Ethoxypyridin-3-yl)thiophene-2-carbonyl]piperazin-1-yl]-N,N-diethylbenzamide], under setting [2], the “ASMS ratio (%) n = 1” value was −0.6% and the “ASMS ratio (%) n = 2” value came to 6.8%.
Regarding `CCOc1cccc(-c2cc(CN3CCN(c4ccc(C(=O)NCC56CC7CC(CC(C7)C5)C6)nn4)CC3)cc(OC(F)(F)F)c2)c1` [B1A089-01, N-(1-Adamantylmethyl)-6-[4-[[3-(3-ethoxyphenyl)-5-(trifluoromethoxy)phenyl]methyl]piperazin-1-yl]pyridazine-3-carboxamide], the “ASMS ratio (%) n = 1” value under setting [1] came out at 0.0%.
For the compound `CCOc1cncc(-c2ccc(CN3CCN(c4ccc(C(=O)NCC56CC7CC(CC(C7)C5)C6)cc4)CC3)cc2F)c1` [B1A052-01, N-(1-Adamantylmethyl)-4-[4-[[4-(5-ethoxypyridin-3-yl)-3-fluorophenyl]methyl]piperazin-1-yl]benzamide], under setting [1], the “ASMS ratio (%) n = 1” value is on record as 4.2% and the “ASMS ratio (%) n = 2” value was −6.2%.
In the case of `CCOc1cccc(-c2cc(CN3CCN(c4ccc(C(=O)NS(=O)(=O)c5ccc(NCCSc6ccccc6)c(C(F)(F)F)c5)nn4)CC3)cc(OC(F)(F)F)c2)c1` [B2R089-01], the “ASMS ratio (%)” value is reported as 3.4% (n = 1) and −9.2% (n = 2).
Taken in the same sequence, the figures for `CCOc1cncc(-c2ccc(C(=O)N3CCN(c4ccc(C(=O)NS(=O)(=O)CCC(F)(F)F)cc4)CC3)cc2F)c1` [B2N028-01, 4-[4-[4-(5-Ethoxypyridin-3-yl)-3-fluorobenzoyl]piperazin-1-yl]-N-(3,3,3-trifluoropropylsulfonyl)benzamide] were −0.7% and −0.9%.
`CCOc1cccc(-c2cc(OC)c(CN3CCN(c4ccc(C(=O)N(C)CC56CC7CC(CC(C7)C5)C6)nn4)CC3)c(OC)c2)c1` [B3A085-01, N-(1-Adamantylmethyl)-6-[4-[[4-(3-ethoxyphenyl)-2,6-dimethoxyphenyl]methyl]piperazin-1-yl]-N-methylpyridazine-3-carboxamide]: under setting [2], the “ASMS ratio (%) n = 1” value is reported as 5.3% and the “ASMS ratio (%) n = 2” value is −7.1%.
Taken in the same sequence, the figures for `CCOc1cccc(-c2cc(C(=O)N3CCN(c4ccc(C(=O)N(C)CC56CC7CC(CC(C7)C5)C6)cc4)CC3)cc(C(C)(C)C)c2)c1` [B3A037-01, N-(1-Adamantylmethyl)-4-[4-[3-tert-butyl-5-(3-ethoxyphenyl)benzoyl]piperazin-1-yl]-N-methylbenzamide] were 0.0% and 0.0%.
Take `CCOc1cncc(C#Cc2cc(C(=O)N3CCN(c4ccc(C(=O)NCC56CC7CC(CC(C7)C5)C6)cc4)CC3)cc(C(F)(F)F)c2)c1` [B1A042-01, N-(1-Adamantylmethyl)-4-[4-[3-[2-(5-ethoxypyridin-3-yl)ethynyl]-5-(trifluoromethyl)benzoyl]piperazin-1-yl]benzamide]: under setting [1], the “ASMS ratio (%) n = 1” value came to 12.5% and the “ASMS ratio (%) n = 2” value is on record as −8.5%.
In the case of `CCOc1cncc(-c2cc(CN3CCN(c4ccc(C(=O)N(CC)CC)cc4)CC3)cc(OC(F)(F)F)c2)c1` [B4J064-01, 4-[4-[[3-(5-Ethoxypyridin-3-yl)-5-(trifluoromethoxy)phenyl]methyl]piperazin-1-yl]-N,N-diethylbenzamide], under “AS-MS, mixture library, Bcl-2”, the “ASMS ratio (%) n = 1” value turned out to be 1.6% and the “ASMS ratio (%) n = 2” value was found to be 0.0%.
As for `CCOc1cncc(-c2cnn(-c3cc(C(=O)N4CCN(c5ccc(C(=O)N(CC)CC)nn5)CC4)cc(C(F)(F)F)c3)c2)c1` [B4J022-01, 6-[4-[3-[4-(5-Ethoxypyridin-3-yl)pyrazol-1-yl]-5-(trifluoromethyl)benzoyl]piperazin-1-yl]-N,N-diethylpyridazine-3-carboxamide], under setting [2], the “ASMS ratio (%) n = 1” value is given as 0.2% and the “ASMS ratio (%) n = 2” value is reported as −0.7%.
